Counter-ions that a name gives are not always drawn. Like-named read-outs stand apart in the source and are kept apart here. No end group written: not given here.
Tests used:
[1] = target: T1, TMPRSS2 (Homo sapiens, UniProt O15393); test: Impact of protease inhibitors on EGTP fluorescence with TMPRSS2 in buffer; format: biochemical; design: expressed in transfected cells; host or cells: TMPRSS2-Vero cells
[2] = target: T1, TMPRSS2; test: TMPRSS2 inhibitor screening with EGTP in TMPRSS2-Vero cells (CLSM); design: effect of inhibitor on yellow fluorescence of EGTP: dose or concentration left out as unconfirmed; settings: for effect of inhibitor on fluorescence intensity of EGTP: 100 nM inhibitor 1 h, 10 μM EGTP 1 h
Experimental: (§5) To further screen TMPRSS2 inhibitors with EGTP, Vero cells and TMPRSS2-Vero cells as robust cell models were chosen for cell imaging (FIG. 4a). Vero cells and TMPRSS2-Vero cells were incubated with different concentrations (1 mM, 5 mM, 10 mM, and 20 mM) of PyTPE and EGTP (Figures S23, S24, S25, and S26).
(§6) Incubation living cells with probes. For confocal laser scanning microscopy imaging, A549 cells, HeLa cells, MCF-7-GFP cells, Vero cells, and TMPRSS2-Vero cells were seeded into cell culture dishes at a density of 2.0×10^5 in growth medium (DMEM supplemented with 10% FBS, 200 mL). After overnight incubation, the cells were washed with phosphate-buffered saline (PBS, pH 7.4) three times. A solution of the indicated probe in PBS was then added, and the cells were incubated in a 5% CO2 atmosphere at 37° C. for further use. […] The supernatant was then discarded, and the cells were washed gently twice with PBS and fixed with 2% paraformaldehyde (PFA) at room temperature for 20 min prior to optical imaging.
(§7) Confocal laser scanning microscopy. […] A 405 nm laser was chosen for the excitation of AIEgens and the emission was collected at 550-620 nm. A 488 nm laser was chosen for the excitation of GFP (or MTG), the emission was collected at 500-530 nm. […] All fluorescence images were analyzed with an IMAGE™ software (Zeiss).

[3] = test system: A549 cells, HeLa cells, and MCF-7-GFP cells
Experimental: (§1) The TMPRSS2 selective imaging capability of EGTP was tested via the three different cell lines.
Cytotoxicity assay. […] The fluorescence of Resazurin solution at 690 nm using an excitation wavelength of 560 nm was recorded by a SYNERGY H1™ microplate reader (BioTek) with standard operation procedures.

[4] = test system: SARS-CoV-2 infected TMPRSS2-Vero cells; test: SARS-CoV-2 infected TMPRSS2-Vero cells with PSGMR and Mpro inhibitor GC376 (CLSM); format: cell-based, SARS-CoV-2 (USA-WA1/2020)
[5] = test system: SARS-CoV-2 infected TMPRSS2-Vero cells; format: cell-based, SARS-CoV-2 (USA-WA1/2020); settings: for yellow and red fluorescence of infected cells: 10 μM probe; for red and yellow fluorescence and cell morphology of infected cells: PSGMR versus PMR
[6] = target: Recombinant SARS-CoV-2 Mpro (Severe acute respiratory syndrome coronavirus 2, UniProt P0DTD1)
[7] = target: Recombinant Mpro (Severe acute respiratory syndrome coronavirus 2, UniProt P0DTD1)
[8] = DLS hydrodynamic size and zeta potential of PSGMR without and with Mpro; format: physicochemical
Experimental: To validate the enzyme digestion efficiency, PSGMR was incubated with different concentrations of Mpro. […] No increase in fluorescence was detected in the presence of the GC376, thus showing that the fluorescence increase was due to Mpro-mediated peptide cleavage. […] PSGMR was also treated under identical conditions with several commercial proteins to investigate probe specificity: papain-like protease, thrombin, bovine serum albumin, and hemoglobin. […] Dynamic light scattering (DLS) tests and transmission electron microscopy (TEM) of PSGMR were performed to de-termine the change of particle size and surface potential distribution after incubation with Mpro. The average hydro-dynamic size of PSGMR increased from 142 nm to 396 nm (FIG. 1h), and the mean zeta potential value decreased from 23.97 mV to 12.46 mV (FIG. 1i). […] This aggregation was confirmed by TEM (FIG. 1j). The 20 mM Tri-HCl buffer can lead to a uniform nanoparticle (˜78 nm) (Figure S18), and β-sheet structure of PSGMR was observed after incubation with Mpro or at high concentrations (Figures S19-S22).
The 1H and 13C NMR spectra were measured on a BRUKER ARX 300™ NMR spectrometer using chloroform-d (CDCl3-d) or dimethyl sulfoxide-d6 (DMSO-d6) as solvent and tetramethylsilane (TMS) as internal reference. Splitting patterns are reported as s (single), d (doublet), t (triplet), and m (multiplet). Peptides were synthesized using an AAPPTec ECLIPSE™ system through standard solid phase Fmoc syntheses on rink-amide resin. Electrospray ionization mass spectrometry (ESI-MS) data was acquired by using a MICROMASS QUATTRO ULTIMA™ mass spectrometer. High resolution mass spectra (HRMS) were recorded on a BRUKER MICROTOF II™ mass spectrometer system. High performance liquid chromatography (HPLC) was performed by using a SHIMADZU™ LC-40 HPLC system under the wavelength of 195 nm, 254 nm, and 405 nm. The sample was dissolved in water or acetonitrile, applied on a ZORBAX 300 BS™ C18 column (5 um, 9.4×250 mm) from Agilent, and eluted at 1.5 mL/min with a 40 min gradient from 10% to 95% solvent B where solvent A is water (0.05% TFA solution) and solvent B is acetonitrile (0.05% TFA solution). All products were purified by HPLC to reach a purity of 90%. UV-Vis absorption and fluorescence spectra were performed on a SYNERGY H1™ microplate reader (BioTek). Confocal laser scanning microscopy images were obtained on a Zeiss LSM880 confocal laser scanning microscope (Zeiss). Dynamic light scattering (DLS) measurements were performed on a NANO-ZS90 ZETASIZER™ (Malvern) to determine hydrodynamic sizes and zeta potential values of the nanosystems studied. Transmission electron microscopy (TEM) images were acquired using an FEI TECNAI F20™ instrument at an operation voltage of 200 kV.

[9] = test system: plasmid transfected HEK 293T cells; format: cell-based
[10] = test system: HEK 293T cells
[11] = test system: Mpro plasmid-transfected HEK 293T cells
[12] = test system: noninfected TMPRSS2-Vero cells
[13] = target: T1, TMPRSS2; test: Cleavage of probes by recombinant TMPRSS2 (HPLC and ESI-MS); format: biochemical; settings: incubation for 1 h at 37° C. in 20 mM Tris-HCl buffer (pH 8.0)
[14] = test system: A549 cells; test: CLSM imaging of A549 cells (TMPRSS2 low expression); format: cell-based; settings: 10 μM probe, 1 h
Experimental: (§2) TMPRSS2 selective imaging in cancer cells with EGTP.
(§3) Incubation living cells with probes.
(§4) Confocal laser scanning microscopy.

[15] = test system: HeLa cells; format: cell-based
Experimental: as §1

[16] = test system: MCF-7-GFP cells; test: CLSM imaging of MCF-7-GFP cells (TMPRSS2 high expression); format: cell-based; settings: 10 μM probe, 1 h
Experimental: as §2, §3, §4

[17] = target: T1, TMPRSS2; test: Enzymatic fluorescence assay of probes with TMPRSS2; format: biochemical; design: expressed in transfected cells; host or cells: TMPRSS2-Vero cells; settings: Tris-HCl buffer with 1% DMSO, excitation 405 nm
Experimental: Recombinant TMPRSS2 was added into the working solution and then diluted to a total of 100 μl with the same Tris-HCl buffer. The reaction mixture was incubated at 37° C. for 1 h for UV-Vis absorption and fluorescence measurement. The solution was excited at 405 nm, and the emission was collected from 430 nm to 800 nm.

[18] = test system: TMPRSS2-Vero cells; format: cell-based
Experimental: as §5, §6, §7

[19] = test system: Vero cells; test: CLSM imaging of Vero cells; settings: 1, 5, 10, 20 mM as printed, 1 h
[20] = 10 μM PSGMR, increasing GC376 (2-12 μM)

T1 sequence (O15393 whole entry): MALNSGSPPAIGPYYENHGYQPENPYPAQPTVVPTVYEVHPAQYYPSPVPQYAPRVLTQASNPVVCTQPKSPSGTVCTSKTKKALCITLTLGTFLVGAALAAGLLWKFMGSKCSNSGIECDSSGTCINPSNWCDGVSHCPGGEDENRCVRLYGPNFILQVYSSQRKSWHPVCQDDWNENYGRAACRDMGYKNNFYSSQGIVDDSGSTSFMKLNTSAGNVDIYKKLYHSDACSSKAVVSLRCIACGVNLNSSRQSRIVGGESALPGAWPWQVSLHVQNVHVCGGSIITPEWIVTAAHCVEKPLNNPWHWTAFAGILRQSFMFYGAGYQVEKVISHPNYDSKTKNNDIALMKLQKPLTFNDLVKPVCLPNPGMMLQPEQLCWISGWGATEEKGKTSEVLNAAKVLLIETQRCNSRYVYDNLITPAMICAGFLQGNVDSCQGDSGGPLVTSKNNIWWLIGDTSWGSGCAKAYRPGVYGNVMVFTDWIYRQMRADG

Molecule: CN(C)C(=O)COC(=O)Cc1ccc(OC(=O)c2ccc(NC(=N)N)cc2)cc1 [Camostat, camostat mesylate]
- effect of inhibitor on fluorescence of EGTP with TMPRSS2 incubation [1]: significantly reduced fluorescence of EGTP
- effect of inhibitor on yellow fluorescence of EGTP ([2]; Camostat before adding EGTP): gradually decreased

Molecule: C#CC[C@H](NC(=O)CNC(=O)CNC(=O)[C@H](CCCNC(=N)N)NC(=O)[C@H](C)NC(=O)[C@H](CCC(N)=O)NC(=O)CNC(=O)CNC(=O)CNC(=O)[C@H](CCC(=O)O)NC(=O)[C@H](CCC(=O)O)NC(=O)[C@H](CCC(=O)O)NC(=O)[C@H](CCC(=O)O)NC(=O)[C@H](CCC(=O)O)NC(=O)[C@H](CCC(=O)O)NC(=O)[C@H](CCC(=O)O)NC(=O)[C@H](CCC(=O)O)NC(=O)[C@@H](N)CCC(=O)O)C(N)=O [EGT, EEEEEEEEEGGGQAR (SEQ ID NO:4)]
- toxicity to cells ([3]; 1 μM to 20 μM, 48 h): negligible toxicity

Molecule: CC(C)C[C@H](NC(=O)OCc1ccccc1)C(=O)N[C@@H](C[C@@H]1CCNC1=O)C(O)S(=O)(=O)[O-].[Na+] (stereo partly drawn) [GC376]
- red and yellow fluorescence with inhibitor ([4]; 10 μM PSGMR and 2 μM, 6 μM, and 12 μM GC376): markedly decreased
- average red fluorescence intensity, decrease [4, 20]: 32.6 to 11.6 times
- average yellow fluorescence intensity, decrease [4, 20]: 5.8 to 3.6 times
- effect of inhibitor on fluorescence intensity of EGTP [2]: no significant effect on the fluorescence intensity of EGTP

Molecule: Cc1ccc(N)cc1C(=O)N[C@H](C)c1cccc2ccccc12 [GRL0617]
- effect of inhibitor on fluorescence intensity of EGTP [2]: no significant effect on the fluorescence intensity of EGTP

Molecule: (Pra)GSAVLQ/SGFRKMAGRRRRRR [PMR]
- killing / inhibition of infected cells [5]: can also inhibit infected cells
- yellow and red fluorescence of infected cells [5]: weaker than that of PSGMR
- red and yellow fluorescence and cell morphology of infected cells [5]: less than the infected cells with PSGMR
- cleavage by Mpro [6]: can be cleaved by M^pro
- cleavage by Mpro ([6]; pH 8): can be cleaved by Mpro between Q and S
- aggregation and fluorescence on incubation with Mpro (time-dependent spectra) [7]: can easily aggregate with strong fluorescence
- fluorescence intensity after incubation with Mpro [7]: weaker than that of PSGMR

Molecule: (Pra)KLVFFGGGSAVLQ/SGFRKMAGGGRRRRRR [PSGMR]
- average hydrodynamic size ([8]; after incubation with Mpro): 396 nm
- mean zeta potential value ([8]; after incubation with Mpro): 12.46 mV
- average hydrodynamic size ([8]; before incubation with Mpro): 142 nm
- mean zeta potential value ([8]; before incubation with Mpro): 23.97 mV
- fluorescence of FLIPGFP, PSGMR [9]: weak green and yellow fluo-rescence
- fluorescence of FLIPGFP, PSGMR and PI [9]: Strong green, yellow and red fluorescence
- green, red and yellow fluorescence intensities with incubation time [9]: markedly enhanced with the longer incubation time
- killing / inhibition of infected cells [5]: can selectively kill SARS-CoV-2-infected cells
- yellow (probe) and red (PI) fluorescence in infected cells [5]: strong yellow and red fluorescence
- yellow and red fluorescence of infected cells [5]: significantly enhanced
- average red fluorescence intensity of infected cells, higher than with PMR ([5]; PI channel): 600%
- red and yellow fluorescence and cell morphology of infected cells [5]: bright red and yellow fluorescence with obvious cell mor-phologic dilatation
- average yellow fluorescence intensity of infected cells, higher than with PMR ([5]; probe channel): 569%
- cleavage by Mpro ([6]; pH 8): can be cleaved by Mpro between Q and S
- aggregation and fluorescence on incubation with Mpro (time-dependent spectra) [7]: can aggregate easily with strong fluorescence
- fluorescence intensity with different concentrations of Mpro [7]: gradually enhanced with in-creasing Mpro concentration
- probe specificity: fluorescence intensity with different proteins [7]: clearly enhanced selectively with Mpro
- time to fluorescence plateau at 590 nm [7]: ≤ 20 min
- high concentration that caused significant cytotoxicity ([10]; HEK 293T cells, 48 h): 40 µM
- cell viability after incubation with probe ([11]; Mpro plasmid-transfected cells): decreased
- cytotoxicity (metabolic activity) ([11]; Mpro plasmid, higher concentration of 10 μM, 48 h): obviously cytotoxic
- red and yellow fluorescence and cell morphology of noninfected cells [12]: weak red and yellow fluorescence with normal cell morphology

Molecule: (Pra)KLVFFGSAVLQ/SGFRKMARRRRRR [PSMR]
- cleavage by Mpro ([6]; pH 8): not
- aggregation and fluorescence on incubation with Mpro (time-dependent spectra) [7]: cannot aggregate with weak fluorescence
- fluorescence intensity after incubation with Mpro [7]: decreased upon incubation with Mpro

Molecule: AVLQFFVLKC [AVLQFFVLKC (SEQ ID NO:12)]
- cleavage by Mpro [6]: not cleaved by Mpro

Molecule: CGAVLQDDD [CGAVLQDDD (SEQ ID NO: 11)]
- cleavage by Mpro [6]: not cleaved by Mpro

Molecule: TGP: control probe without polyglutamic acid: peptide QARGG (SEQ ID NO:2) linked by Propargylglycine (Pra) to the dye PyTPE (also: linked by Pra to dye PyTPE, end not given here)
- cleavage by TMPRSS2 [13]: can be cleaved by TMPRSS2
- yellow fluorescence in A549 cells [14]: strong yellow fluorescence
- yellow fluorescence in HeLa cells ([15]; 10 μM probe, 1 h): strong yellow fluorescence
- yellow fluorescence in MCF-7-GFP cells [16]: strong yellow fluorescence
- fluorescence intensity after incubation with TMPRSS2 (comparison of probes) [17]: stronger than that of EGTP and EGEP

Molecule: TetraPhenylEthene Pyridinium [PyTPE]
- concentration that can cause significant cytotoxicity [3]: > 5 µM
- cytotoxicity (metabolic activity) [3]: obviously cytotoxic
- overlap of yellow fluorescence with Mito tracker green (MTG) [15]: overlapped well with the green fluorescence of MTG
- yellow fluorescence in TMPRSS2-Vero cells [18]: enhanced with increasing concentrations
- cytotoxicity (metabolic activity) [10]: obviously cytotoxic
- high concentration that caused significant cytotoxicity [10]: 20 µM
- yellow fluorescence in Vero cells [19]: enhanced with increasing concentrations

— patent US20250361277A1, “PROTEASE-RESPONSIVE SURFACE-POTENTIAL-TUNABLE PEPTIDE CONSTRUCTS FOR SELECTIVE IMAGING AND ACCURATE INHIBITOR SCREENING” (The Regents of the University of California, priority 2024, published 2025)
